Results taken from patent US4738968A, “1,8-naphthyridine derivatives useful as anti-bacterial agents” (Dainippon Pharmaceutical Co., Ltd., priority 1985, dated 1988).
In brackets after ≈: the same amount, converted by molar mass.

What was measured:
[1] = tested on: Streptococcus pyogenes A65; assay: In vivo efficacy against systemic infection in mice, S. pyogenes A65; set-up: species or system mice (ddY-S); conditions: A65, 168 h, intraperitoneal infection 3×10^7 cells, drug iv twice, immediately and 6 hours after infection, 7 days observation, calculated for free base, read-out: median effective dose (ED50)
Method: Compounds were each dissolved in deionized water. Each of the solutions was intravenously (iv) administered to mice infected by each of the test organisms under the conditions shown hereinbelow, and the median effective dose (ED50) was calculated by probit analysis. The numerals in the table show ED50 (mg/kg) value, caluclated for free base. Experimental conditions: Mice: Male mice (ddY-S) weighing about 20 g Infection: Streptococcus pyogenes […] Intraperitoneal infection with 3×10^7 cells per mouse suspended in brain heart infusion broth. Medication: Twice, immediately and 6 hours after infection. Observation: For 14 days in the case of Staphylococcus aureus 50774. For 7 days in the case of Streptococcus pyogenes […].

[2] = tested on: Staphylococcus aureus 50774; assay: In vivo efficacy against systemic infection in mice, S. aureus 50774; set-up: species or system mice (ddY-S); conditions: Staphylococcus aureus, 50774, 336 h, iv infection 5×10^8 cells, drug iv twice, immediately and 6 hours after infection, 14 days observation, calculated for free base, read-out: median effective dose (ED50)
Method: Compounds were each dissolved in deionized water. Each of the solutions was intravenously (iv) administered to mice infected by each of the test organisms under the conditions shown hereinbelow, and the median effective dose (ED50) was calculated by probit analysis. The numerals in the table show ED50 (mg/kg) value, caluclated for free base. Experimental conditions: Mice: Male mice (ddY-S) weighing about 20 g Infection: Staphylococcus aureus 50774 Intravenous infection with 5×10^8 cells per mouse suspended in saline. Medication: Twice, immediately and 6 hours after infection. Observation: For 14 days in the case of Staphylococcus aureus 50774. For 7 days in the case of Streptococcus pyogenes […].

[3] = tested on: S. aureus 50774; assay: In vitro antibacterial activity, twofold agar-dilution MIC; type: cell-based; conditions: Staphylococcus aureus; S. aureus 50774, Gram +; calculated for free base; 20-hour incubation at 37° C; read-out: minimum inhibitory concentration (MIC)
Method: (§1) The antibacterial activity in vitro is show in Table 1. The numbers in the table show minimum inhibitory concentrations (MIC) (μg/ml), calculated for free base. The minimum inhibitory concentration was determined by the twofold agar-dilution method, which was recommended by Japan Society of Chemotherapy (Chemotherapy, 29(1), 76(1981)), using Muller-Hinton agar. One loopful of an overnight culture of test organisms in Mueller-Hinton broth was inoculated onto 10-ml drug-containing agar layers in petri dishes. Bacterial inocula contained approximately 10^6 colonyl-formingunits. Bacterial growth was observed after 20-hour incubation at 37° C. The MIC was defined as the lowest drug concentration which prevented visible bacterial growth.

[4] = tested on: P. rettgeri IFO 3850; assay: as above; type: cell-based; conditions: Providencia rettgeri, IFO3850; P. rettgeri IFO 3850, Gram -; calculated for free base; 20-hour incubation at 37° C; read-out: minimum inhibitory concentration (MIC)
Method: as §1

[5] = tested on: S. pyogenes A65; assay: as above; type: cell-based; conditions: Streptococcus pyogenes; S. pyogenes A65, Gram +; calculated for free base; 20-hour incubation at 37° C; read-out: minimum inhibitory concentration (MIC)
Method: as §1

[6] = tested on: S. epidermidis 8; assay: as above; type: cell-based; conditions: Staphylococcus epidermidis; S. epidermidis 8, Gram +; calculated for free base; 20-hour incubation at 37° C; read-out: minimum inhibitory concentration (MIC)
Method: as §1

[7] = tested on: E. coli P-51208; assay: as above; type: cell-based; conditions: Escherichia coli, P51208; E. coli P-51208, Gram -; calculated for free base; 20-hour incubation at 37° C; read-out: minimum inhibitory concentration (MIC)
Method: as §1

[8] = tested on: M. lacunata P-7102; assay: as above; type: cell-based; conditions: M. lacunata P-7102, Gram -; calculated for free base; 20-hour incubation at 37° C; read-out: minimum inhibitory concentration (MIC)
Method: as §1

[9] = tested on: S. aureus Smith; assay: as above; type: cell-based; conditions: Staphylococcus aureus, Gram +, calculated for free base, 20-hour incubation at 37° C, read-out: minimum inhibitory concentration (MIC)
Method: as §1

[10] = tested on: E. coli P-51209; assay: as above; type: cell-based; conditions: Escherichia coli, P51209; E. coli P-51209, Gram -; calculated for free base; 20-hour incubation at 37° C; read-out: minimum inhibitory concentration (MIC)
Method: as §1

[11] = tested on: S. aureus 80; assay: as above; type: cell-based; conditions: Staphylococcus aureus; S. aureus 80, Gram +; calculated for free base; 20-hour incubation at 37° C; read-out: minimum inhibitory concentration (MIC)
Method: as §1

[12] = tested on: K. pneumoniae 13; assay: as above; type: cell-based; conditions: Klebsiella pneumoniae; K. pneumoniae 13, Gram -; calculated for free base; 20-hour incubation at 37° C; read-out: minimum inhibitory concentration (MIC)
Method: as §1

[13] = tested on: E. coli P-5101; assay: as above; type: cell-based; conditions: Escherichia coli, P5101; E. coli P-5101, Gram -; calculated for free base; 20-hour incubation at 37° C; read-out: minimum inhibitory concentration (MIC)
Method: as §1

[14] = Solubility in water; type: physicochemical; conditions: distilled water, 25° C overnight
Method: The sample was added to distilled water (10 ml) and the solution was shaken in the supersaturated state for 30 minutes. After incubation at 25° C. overnight, the solution was filtered with a microfilter. The filtrate was diluted with 0.1 N hydrochloric acid. The absorbance at 270 nm of the solution was measured and the concentration (μg/ml) of the sample was calculated from a calibration curve separately prepared.

Row | SMILES | ED50 [1] [mg/kg] | ED50 [2] [mg/kg] | MIC [3] [µg/mL] | MIC [4] [µg/mL] | MIC [5] [µg/mL] | MIC [6] [µg/mL] | MIC [7] [µg/mL] | MIC [8] [µg/mL] | MIC [9] [µg/mL] | MIC [10] [µg/mL] | MIC [11] [µg/mL] | MIC [12] [µg/mL] | MIC [13] [µg/mL] | solubility [14] [µg/mL]
1 | CCn1cc(C(=O)O)c(=O)c2cc(F)c(N3CCC(CN)C3)nc21.Cl (stereo not drawn) [Compound A, 7-(3-aminomethyl-1-pyrrolidinyl)-1-ethyl-6-fluoro-1,4-dihydro-4-oxo-1,8-naphthyridine-3-carboxylic acid hydrochloride, reference compound] | 3.75 | 2.79 | 0.2 | 0.78 | 0.39 | 0.1 | 6.25 | 50 | 0.1 | 12.5 | 0.39 | 0.39 | 0.39 | –
2 | Cl.NC[C@@H]1CN(c2nc3c(cc2F)c(=O)c(C(=O)O)cn3C2CC2)C[C@@H]1F (relative stereo) [Compound No. 1-cis.HCl, 7-(cis-3-aminomethyl-4-fluoro-1-pyrrolidinyl)-1-cyclopropyl-6-fluoro-1,4-dihydro-4-oxo-1,8-naphthyridine-3-carboxylic acid hydrochloride] | 0.365 | 0.274 | 0.025 | 0.05 | 0.0125 | 0.0125 | 0.78 | 6.25 | 0.025 | 0.78 | 0.025 | 0.05 | 0.0125 | –
3 | NC[C@@H]1CN(c2nc3c(cc2F)c(=O)c(C(=O)O)cn3C2CC2)C[C@@H]1F (relative stereo) [Compound No. 1-cis, 7-(cis-3-aminomethyl-4-fluoro-1-pyrrolidinyl)-1-cyclopropyl-6-fluoro-1,4-dihydro-4-oxo-1,8-naphthyridine-3-carboxylic acid] | – | – | – | – | – | – | – | – | – | – | – | – | – | 927 (≈ 2540 µM)
4 | CCNC[C@@H]1CN(c2nc3c(cc2F)c(=O)c(C(=O)O)cn3C2CC2)C[C@H]1F.Cl (relative stereo) [4-trans.HCl, 1-cyclopropyl-7-(trans-3-ethylaminomethyl-4-fluoro-1-pyrrolidinyl)-6-fluoro-1,4-dihydro-4-oxo-1,8-naphthyridine-3-carboxylic acid hydrochloride] | 0.267 | – | 0.025 | 0.05 | 0.05 | 0.0125 | 0.78 | 3.13 | 0.025 | 0.78 | 0.0125 | 0.05 | 0.0125 | –
5 | Cl.NC[C@@H]1CN(c2nc3c(cc2F)c(=O)c(C(=O)O)cn3C2CC2)C[C@@H]1Cl (relative stereo) [2-cis.HCl, 7-(cis-3-aminomethyl-4-chloro-1-pyrrolidinyl)-1-cyclopropyl6-fluoro-1,4-dihydro-4-oxo-1,8-naphthyridine-3-carboxylic acid hydrochloride] | 0.235 | 0.355 | 0.025 | 0.05 | 0.025 | 0.0125 | 0.78 | 3.13 | 0.025 | 0.78 | 0.0125 | 0.05 | 0.0125 | –
6 | Cl.NCC1CCN(c2nc3c(cc2F)c(=O)c(C(=O)O)cn3C2CC2)C1 (stereo not drawn) [Compound B, 7-(3-aminomethyl-1-pyrrolidinyl)-1-cyclopropyl-6-fluoro-1,4-dihydro-4-oxo-1,8-naphthyridine-3-carboxylic acid hydrochloride, reference compound] | 0.601 | 0.701 | 0.025 | 0.1 | 0.05 | 0.025 | 3.13 | 12.5 | 0.05 | 3.13 | 0.05 | 0.1 | 0.025 | –
7 | Cl.NC[C@@H]1CN(c2nc3c(cc2F)c(=O)c(C(=O)O)cn3C2CC2)C[C@H]1F (relative stereo) [Compound No. 1-trans.HCl, 7-(trans-3-aminomethyl-4-fluoro-1-pyrrolidinyl)-1-cyclopropyl-6-fluoro-1,4-dihydro-4-oxo-1,8-naphthyridine-3carboxylic acid hydrochloride] | – | – | 0.025 | 0.05 | 0.025 | 0.0125 | 0.78 | 3.13 | 0.025 | 0.78 | 0.025 | 0.05 | 0.0063 | –
8 | CNC[C@@H]1CN(c2nc3c(cc2F)c(=O)c(C(=O)O)cn3C2CC2)C[C@@H]1F (relative stereo) [3-cis, 1-cyclopropyl-6-fluoro-7-(cis-4-fluoro-3-methylaminomethyl-1-pyrrolidinyl)-1,4-dihydro-4-oxo-1,8-naphthyridine-3-carboxylic acid] | – | – | – | – | – | – | – | – | – | – | – | – | – | 789 (≈ 2090 µM)
9 | NC[C@@H]1CN(c2nc3c(cc2F)c(=O)c(C(=O)O)cn3C2CC2)C[C@@H]1Cl (relative stereo) [Compound No. 2-cis, 7-(cis-3-aminomethyl-4-chloro-1-pyrrolidinyl)-1-cyclopropyl-6-fluoro-1,4-dihydro-4-oxo-1,8-naphthyridine-3-carboxylic acid] | – | – | – | – | – | – | – | – | – | – | – | – | – | 713 (≈ 1870 µM)
